Experimental data from PubChem BioAssay AID1208 (EPA DSSTox, 2008).
The source made the active and inactive calls.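 The calls were made as follows: active = at least one rat sex group has a carcinogenic potency value and tumor site recorded; inconclusive = only rat studies were judged inadequate by the national testing program; inactive = no potency or tumor site, with negative rat experiments.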

System: rat chronic carcinogenicity bioassay, TD50
Assay: DSSTox (CPDBAS) Carcinogenic Potency Database Summary Rat Bioassay Results
Settings: for outcome: TD50_Rat_Note: no positive results; for Potency: stronger effect = lower value
Procedure, shortened: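 Chronic long-term rat cancer bioassays from literature and NCI/NTP, taking the most positive result per sex. TD50 in mmol converted to a 1–100 Activity Score from log10(1/TD50). Mixtures lacking TD50 scored 50.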

[1] = TargetSites_Rat_Female: no positive results
[2] = TD50_Rat_Note: TD50 is harmonic mean of more than one positive test, TargetSites_Rat_Female: liver

## COc1ccc2c3c1O[C@H]1[C@@H](O)C=C[C@H]4[C@@H](C2)N(C)CC[C@@]341
[1]
  outcome: inactive; no positive results

## C[C@]12CC[C@@H]3c4ccc(OC(=O)Cc5ccc(N(CCCl)CCCl)cc5)cc4CC[C@H]3[C@@H]1CC[C@@H]2OC(=O)Cc1ccc(N(CCCl)CCCl)cc1
[1]
  outcome: inactive; no positive results

## O=C1CCCO1
[1]
  outcome: inactive; no positive results

## CC(=O)Nc1ccc(S(=O)(=O)c2ccc(NC(C)=O)cc2)cc1
TD50_Rat_Note: no positive results are statistically significant, TargetSites_Rat_Female: mammary gland
  Potency: 55.6 mg/kg/day

## CC#N
[1]
  outcome: inactive; no positive results

## c1ccccc1
TD50_Rat_Note: TD50 is harmonic mean of more than one positive test, TargetSites_Rat_Female: ear Zymbals gland, nasal cavity, oral cavity, stomach, vascular system
  Potency: 169 mg/kg/day

## CCCCNC(=O)N(CCCC)N=O
TargetSites_Rat_Female: hematopoietic system, mammary gland
  Potency: 4.28 mg/kg/day

## CN1CCCC1=O
[1]
  outcome: inactive; no positive results

## Cn1cnc([N+](=O)[O-])c1Sc1ncnc2nc[nH]c12
[1]
  outcome: inactive

## Cc1c(N(C)CS(=O)(=O)O)c(=O)n(-c2ccccc2)n1C
[1]
  outcome: inactive; no positive results

## Cc1ccc(NC(N)=O)cc1
[1]
  outcome: inactive; no positive results

## CN(C)CCN(Cc1cccs1)c1ccccn1
[2]
  Potency: 9.13 mg/kg/day

## C1CCCNCCC1
[1]
  outcome: inactive; no positive results

## CC=O
TD50_Rat_Note: TD50 is harmonic mean of more than one positive test, TargetSites_Rat_Female: nasal cavity
  Potency: 153 mg/kg/day

## CC1=C2C(=CO[C@@H](C)[C@@H]2C)C(=O)C(C(=O)O)=C1O
TD50_Rat_Note: TD50 value is overestimated as upper 99% confidence limit from study with 100% tumor incidence but no lifetable, TD50 is
  Potency: 7.48 mg/kg/day

## C[C@@H]1O[C@@]2(CS1)CN1CCC2CC1
[1]
  outcome: inactive; no positive results

## C=O
TD50_Rat_Note: TD50 is harmonic mean of more than one positive test, greater than ten-fold variation among TD50 values for positive res, TargetSites_Rat_Female: hematopoietic system, nasal cavity
  Potency: 1.35 mg/kg/day

## CN(N=O)C(N)=O
  Potency: 0.0927 mg/kg/day

## Cn1cc(OCC(O)CNC(C)(C)C)c2ccccc2c1=O (stereo not drawn)
[1]
  outcome: inactive; no positive results

## NC(=O)CCCCC(N)=O
[1]
  outcome: inactive; no positive results

## CC(=O)Nc1cccc2c1-c1ccccc1C2
[1]
  outcome: inactive

## C/C=N/O
  outcome: inactive; no positive results

## CCCCCCN(N=O)C(N)=O
TD50_Rat_Note: TD50 is harmonic mean of more than one positive test, harmonic mean of TD50 includes a value for upper 99% confidence li, TargetSites_Rat_Female: lung, mammary gland, stomach, uterus
  Potency: 0.513 mg/kg/day

## CCCCOCCOCCOCc1cc2c(cc1CCC)OCO2
[2]
  Potency: 633 mg/kg/day

## Nc1ccc(Cc2ccc(N)cc2)cc1
TD50_Rat_Note: TD50 is harmonic mean of more than one positive test, TargetSites_Rat_Female: thyroid gland
  Potency: 20 mg/kg/day

## C/C(=C(\CCOC(=O)c1ccccc1)SC(=O)c1ccccc1)N(C=O)Cc1cnc(C)nc1N
[1]
  outcome: inactive; no positive results

## CC(=O)NCc1nc(-c2ccc([N+](=O)[O-])o2)no1
TD50_Rat_Note: no positive results are statistically significant, TargetSites_Rat_Female: kidney, lung
  Potency: 59.6 mg/kg/day

## CC[C@H]1OC(=O)[C@H](C)[C@@H](O[C@H]2C[C@@](C)(OC)[C@@H](O)[C@H](C)O2)[C@H](C)[C@@H](O[C@@H]2O[C@H](C)C[C@H](N(C)C)[C@H]2O)[C@](C)(O)C[C@@H](C)C(=O)[C@H](C)[C@@H](O)[C@]1(C)O
[1]
  outcome: inactive; no positive results

## CC(C)(C)NCC(O)c1cc(O)cc(O)c1 (stereo not drawn)
TargetSites_Rat_Female: mesovarium
  Potency: 410 mg/kg/day

## O=[O+][O-]
[1]
  outcome: inactive; no positive results

## CCCCOC(=O)c1ccccc1C(=O)OCc1ccccc1
TargetSites_Rat_Female: no positive results- CPDB evaluation based on NCI Technical Report
  Potency: 1040 mg/kg/day

## FCCl
TD50_Rat_Note: TD50 is harmonic mean of more than one positive test, TargetSites_Rat_Female: stomach
  Potency: 27.5 mg/kg/day

## Oc1ccc2ccccc2c1N=Nc1ccccc1
[2]
  Potency: 29.4 mg/kg/day

## O=C(O)O
TD50_Rat_Note: TD50 is harmonic mean of more than one positive test, TargetSites_Rat_Female: urinary bladder
  Potency: 13000 mg/kg/day
  outcome: inactive; no positive results

## COP(=S)(OC)Oc1ccc([N+](=O)[O-])cc1
[1]
  outcome: inactive; no positive results

## COc1ccc(N)cc1N
TD50_Rat_Note: TD50 is harmonic mean of more than one positive test, TargetSites_Rat_Female: clitoral gland, ear Zymbals gland, mammary gland, thyroid gland
  Potency: 183 mg/kg/day

## CC(=O)OC(OC(C)=O)c1ccc([N+](=O)[O-])o1
[1]
  outcome: inactive

## CCN(CC)c1ccc(N=Nc2cc[n+]([O-])cc2)cc1
TD50_Rat_Note: TD50 value is overestimated as upper 99% confidence limit from study with 100% tumor incidence but no lifetable, harmoni
  Potency: 1.63 mg/kg/day

## NC(=S)C(N)=S
[1]
  outcome: inactive

## CCSC[C@H](N)C(=O)O
  outcome: inactive; no positive results

## O=C1c2ccccc2-c2ccc3c4c(ccc1c24)-c1ccccc1C3=O
[1]
  outcome: inactive; no positive results

## O=S(=O)([O-])[O-].[O]=[V+2]
  outcome: inactive; no positive results

## Cc1ccc2c(-c3cccc(O)c3)nc(=O)n(C(C)C)c2c1
[1]
  outcome: inactive; no positive results

## COc1ccc(O)c(C(C)(C)C)c1
TD50_Rat_Note: TD50 is harmonic mean of more than one positive test, harmonic mean of TD50 includes a value for upper 99% confidence li, TargetSites_Rat_Female: stomach
  Potency: 405 mg/kg/day

## O=NN1CCC(O)C1 (stereo not drawn)
TargetSites_Rat_BothSexes: all tumor bearing animals
  Potency: 7.65 mg/kg/day

## CCNc1nc(Cl)nc(NC(C)C)n1
TD50_Rat_Note: TD50 is harmonic mean of more than one positive test, TargetSites_Rat_Female: hematopoietic system, mammary gland, uterus
  Potency: 36.6 mg/kg/day

## [O]=[Mo](=[O])=[O]
[1]
  outcome: inactive; no positive results

## C=C1C/C(=C/C)C(=O)O[C@@H]2CCN3CC=C(COC(=O)[C@@]1(O)CO)[C@H]23
TD50_Rat_Note: TD50 is harmonic mean of more than one positive test, TargetSites_Rat_Female: hematopoietic system, liver, vascular system
  Potency: 0.119 mg/kg/day

## CC(=O)Nc1cccc2c1Cc1ccccc1-2
[1]
  outcome: inactive

## COc1cc(OC)c2c3c(c(=O)oc2c1)CCC3=O
  outcome: inactive; no positive results

## CN(C)[C@@H]1C(=O)C(C(N)=O)=C(O)[C@@]2(O)C(=O)C3=C(O)c4c(O)cccc4[C@@](C)(O)[C@H]3C[C@@H]12
[1]
  outcome: inactive; no positive results

## ClC(Cl)=C(Cl)C(Cl)=C(Cl)Cl
TD50_Rat_Note: TD50 is harmonic mean of more than one positive test, TargetSites_Rat_Female: kidney
  Potency: 65.8 mg/kg/day

## CCOC(=O)CC(SP(=S)(OC)OC)C(=O)OCC (stereo not drawn)
[1]
  outcome: inactive; no positive results

## CC(CN1CC(=O)NC(=O)C1)N1CC(=O)NC(=O)C1 (stereo not drawn)
TD50_Rat_Note: positive test results only by intraperitoneal or intravenous injection, TargetSites_Rat_Female: uterus
  Potency: 10.7 mg/kg/day

## CC1=C(CC(=O)O)c2cc(F)ccc2/C1=C\c1ccc(S(C)(=O)=O)cc1
  outcome: inactive; no positive results

## ON=C1CCCC1
  Potency: 40.9 mg/kg/day

## NC(=O)Cc1c([O-])on[n+]1Cc1ccccc1
  Potency: 4.24 mg/kg/day

## CS(=O)(=O)c1ccc([C@@H](O)[C@@H](CO)NC(=O)C(Cl)Cl)cc1
[1]
  outcome: inactive; no positive results

## CN(CCc1ccccc1)N=O
TD50_Rat_Note: TD50 is harmonic mean of more than one positive test
  Potency: 0.00998 mg/kg/day

## ClC(Cl)(Cl)C(Cl)(Cl)Cl
[1]
  Potency: 55.4 mg/kg/day

## Nc1ccc2c(c1)oc1ccccc12
  Potency: 2.48 mg/kg/day

## COc1ccccc1N1CCN(CCCNc2cc(=O)n(C)c(=O)n2C)CC1
[1]
  outcome: inactive; no positive results

## [O]=[Bi]
TargetSites_Rat_BothSexes: no positive results
  outcome: inactive

## Cc1csc(NNC=O)n1
TargetSites_Rat_Female: mammary gland
  Potency: 14.4 mg/kg/day

## ClC1=C(Cl)C(Cl)(Cl)C(Cl)=C1Cl
[1]
  outcome: inactive; no positive results

## CC(N)=S
  Potency: 11.5 mg/kg/day

## ClC(Cl)Cl
[2]
  Potency: 262 mg/kg/day

## CCCCCC(/C=C/C=C\CCCCCCCC(=O)OC)OO (stereo not drawn)
  outcome: inactive; no positive results

## O=c1ccc2ccccc2o1
TD50_Rat_Note: TD50 is harmonic mean of more than one positive test, greater than ten-fold variation among TD50 values for positive res, TargetSites_Rat_Female: liver
  Potency: 39.2 mg/kg/day

## CN(N=O)C(=O)N[C@@H]1[C@@H](O)[C@H](O)[C@@H](CO)O[C@@H]1O
TD50_Rat_Note: positive test results only by intraperitoneal or intravenous injection, TD50 is harmonic mean of more than one positive, TargetSites_Rat_Female: kidney
  Potency: 0.963 mg/kg/day

## COc1c(Cl)c(Cl)c(Cl)c(Cl)c1Cl
[1]
  Potency: 24.8 mg/kg/day

## C=CC(OCC)OCC
[1]
  outcome: inactive; no positive results

## CCNNC(=O)[C@@H]1[C@H](c2cc(OC)c(OC)c(OC)c2)c2cc3c(cc2[C@H](O)[C@H]1CO)OCO3
  outcome: inactive; no positive results

## CN1C2CC[C@@H]1CC(NC(=O)c1cc(Cl)cc3c1OC(C)(C)C3)C2 (stereo partly drawn)
[1]
  outcome: inactive; no positive results

## O=NN(CCCC(F)(F)F)CCCC(F)(F)F
TD50_Rat_Note: TD50 is harmonic mean of more than one positive test, TargetSites_Rat_Female: liver, lung
  Potency: 0.748 mg/kg/day

## Oc1ccccc1
[1]
  outcome: inactive; no positive results

## CC1=C(/C=C/C(C)=C/C=C/C(C)=C/C=C/C=C(C)/C=C/C=C(C)/C=C/C2=C(C)CCCC2(C)C)C(C)(C)CCC1
  outcome: inactive; no positive results

## Nc1ccc(Cl)cc1
[1]
  outcome: inactive; no positive results
  Potency: 7.62 mg/kg/day

## c1ccc2n[nH]nc2c1
[1]
  outcome: inactive; no positive results

## CCCN(CCC)c1ccc(N=Nc2cc[n+]([O-])cc2)cc1
  outcome: inactive; no positive results

## CCCN=[N+]([O-])CCC
TD50_Rat_Note: harmonic mean of TD50 includes a value for upper 99% confidence limit from study with 100% tumor incidence but no lifeta
  Potency: 0.000241 mg/kg/day

## NC(=S)NNC(N)=S
[1]
  outcome: inactive; no positive results

## Cc1ccccc1N
TD50_Rat_Note: TD50 is harmonic mean of more than one positive test, TargetSites_Rat_Female: bone, mammary gland, urinary bladder, vascular system
  Potency: 43.6 mg/kg/day

## CN(C)c1ccc(N=Nc2ccccc2)cc1
TargetSites_Rat_Female: liver
  Potency: 3.31 mg/kg/day

## C/C=C1/C[C@@H](C)[C@@](C)(O)C(=O)OC/C2=C/CN(C)CC[C@@H](OC1=O)C2=O
TD50_Rat_Note: positive test results only by intraperitoneal or intravenous injection
  Potency: 1.7 mg/kg/day

## Nc1cccc(N)c1
  outcome: inactive; no positive results
